This data set is described as follows: Mouse plasma pharmacokinetics after subcutaneous administration. Particulars: 30 mg/kg subcutaneous. It counts as in vivo. The method, then:
Pharmacokinetic analysis of plasma samples was performed at GVK BIO Sciences Pvt. Ltd. (Hyderabad, India). The pharmacokinetic properties of compound 18a were determined by subcutaneous administration in male C57BL/6 mice. A 30 mg/kg dose was formulated as a solution in 23% hydroxypropyl-beta-cyclodextrin (HPBCD; w/v) in water. The dose volume was 3 mL/kg. Serial blood samples were collected at 0.5, 1, 2, 4, 6, 8 and 24 h post dosing (n = 3). Plasma concentration of compound 18a was determined by a LC–MS/MS method. Chromatography was performed on a reverse phase column (Kinetex EVO, C18, 50 × 4.6 mm, 5 µ) at a flow rate of 1 mL/minute, using a gradient-elution method. Mobile Phase A was a 10 mM ammonium acetate solution with 0.1% formic acid in water, whereas mobile phase B was a mixture of acetonitrile and methanol (50:50). The gradient started at 5% B ramped up to 95% B over 1 min, held at 95% B for 1.2 min, and then ramped down to 5% B over 0.1 min, and held at 5% B for 1.2 min. The mass spectrometer was operated in positive-ionization mode and Telmisartan was used as internal standard. Analyst software was used for the data acquisition and chromatographic-peak integration. The Cmax, Tmax, AUC and half-life value (t1/2) were determined using standard non-compartmental pharmacokinetic methods. The concentration of compound 18a in liver and lung tissue was determined by LC–MS/MS at Eurofins (Vergeze, France). Tissues harvested at the endpoint of the efficacy study (day 28 for liver, day 21 for lung), 2 h post the last compound 18a dose, were processed. Around 250 mg of the lateral right liver lobe (n = 3) and ~ 120 mg of the caudal right lung lobe (n = 4) were homogenized in water and precipitated in acetonitrile containing Irbesartan as internal standard. Further analysis was performed via a similar method as described above. Data are expressed as mean ± sem.
Pharmacokinetic parameters were calculated from plasma concentration-time data in male C57BL/6 mice (n=3). Cmax is reported as the mean ± SD.

Where [1] appears, read: mouse, sc, male C57BL/6 mice, plasma.

With `CCc1ccn2ccnc2c1N1CCCN(C(CC(N)=O)C2CCN(C(=O)C3CC4CCC3O4)CC2)CC1` (centres unmarked) [compound 18a], the “time after administration for which plasma levels exceeded the target value (5.2 ng/mL)” value (below target at 24 h) is given as “up to 8 h”. Under setting [1], the area under the curve (AUC) came out at 6700 ng·h/mL, the Tmax is 0.25 h and the half-life was 5.2 h. The compound further displayed a maximum concentration (Cmax) (mouse, sc, male C57BL/6 mice, plasma, mean ± SD, n=3) of 6120 ng/mL.
